These results are taken from patent US20080166403A1, “Long circulating liposome” (Industrial Technology Research Institute, priority 2003, published 2008).

SMILES strings stand for the structures.

The nature of the data set: Circulation time of liposomes in the body: Doxorubicin concentration in rat blood by a pharmacokinetics method with HPLC analysis. In kind it is in vivo. Conditions: 8 hours after injection, FIG. 1. Here is the method:
In this example, the concentration of Doxorubicin in the blood is determined by a pharmacokinetics method, and HPLC analysis is performed subsequently.
Doxo. is compared with DO503 liposomes (Example 1) and DO502 liposomes (Example 2), wherein Doxo. represents the free doxorubicin solution. […] Especially for DO503, it even exists in rat blood 48 hours after injection.

Turning to `COc1cccc2c1C(=O)c1c(O)c3c(c(O)c1C2=O)C[C@@](O)(C(=O)CO)C[C@@H]3O[C@H]1C[C@H](N)[C@H](O)[C@H](C)O1` [Doxo., doxorubicin], the “Doxorubicin concentration in rat blood” value is listed as “almost no Doxorubicin concentration detected”.
